Patent US20260210939A1, “MODIFIED OLFACTORY RECEPTORS” (GIVAUDAN SA, priority 2022, published 2026)
pEC50: −log10 of the molar value. Where two headings read alike, the source gives them in different places.

Experiments:
[1] = target: human class II OR identified in the library screening (Homo sapiens, UniProt P34982)
Target sequence in this assay (P34982 whole entry, the tested form may be a part): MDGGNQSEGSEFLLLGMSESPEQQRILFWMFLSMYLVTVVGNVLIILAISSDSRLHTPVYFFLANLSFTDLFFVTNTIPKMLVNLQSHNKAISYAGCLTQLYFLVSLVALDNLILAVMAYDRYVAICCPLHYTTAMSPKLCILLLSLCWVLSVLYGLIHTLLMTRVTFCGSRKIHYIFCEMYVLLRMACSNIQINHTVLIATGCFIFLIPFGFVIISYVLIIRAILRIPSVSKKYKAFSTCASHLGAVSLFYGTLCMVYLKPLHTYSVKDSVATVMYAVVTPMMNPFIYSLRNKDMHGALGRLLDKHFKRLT
Description: (§1) Selected ligand—OR pairs were then tested in a confirmatory test with a dose response analysis.
(§2) For selected receptors, the wild-type sequence was synthesized and cloned into pcDNA3.1 (+). Dose-response analysis with the cognate ligand was then performed for both the wild-type and the modified sequence.

[2] = tested on: human class II OR identified in the library screening
Description: as §1, §2

[3] = target: human class II OR identified in the library screening (Homo sapiens, UniProt P34982); assay: Confirmatory dose-response analysis of library-hit OR with cognate ligand, wild-type vs C-terminal domain SEQ ID NO: 221 (Table 17); settings: read-out: Potency, EC50 changed C-term; OR1D2, modified C-terminus SEQ ID NO: 221 (SEQ ID NO: 336);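 further: Wild-type receptor sequences expressed from the pcDNA3.1(+) vector and compared with the C-terminally modified receptors in dose-response tests using each receptor's cognate ligand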
Target sequence in this assay (P34982 1-291): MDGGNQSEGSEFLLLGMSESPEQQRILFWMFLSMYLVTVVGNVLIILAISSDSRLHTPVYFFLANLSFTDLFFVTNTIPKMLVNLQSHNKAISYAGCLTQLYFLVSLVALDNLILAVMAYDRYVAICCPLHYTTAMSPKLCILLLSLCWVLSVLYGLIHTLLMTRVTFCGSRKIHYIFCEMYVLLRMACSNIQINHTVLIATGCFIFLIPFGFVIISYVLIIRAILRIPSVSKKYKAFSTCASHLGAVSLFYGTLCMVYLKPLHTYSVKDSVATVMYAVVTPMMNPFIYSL
Description: as §1, §2

[4] = tested on: human class II OR identified in the library screening; assay: as above; settings: for Fold improvement efficacy: maximal induction; for pEC50: read-out: Potency, EC50 changed C-term; for Detection threshold; Fold improvement efficacy: under detection threshold
Description: as §1, §2

OR7C1 [5] = target: T1, OR7C1 (Homo sapiens, UniProt O76099, D296E/G302K/M297V/R299D/T295K/V126I); assay: CRE-luciferase assay, HEK293T cells expressing OR7C1 (wild-type / modified C-terminus); format: cell-based
T1 construct: Improved functional expression of modified OR-genes containing the truncated, optimized C-terminus; expressed in transfected cells; host or cells: HEK293T stably expressing human RTP1S(V227I) and RTP2(L220R)
T1 sequence (O76099 with tags, fused parts or gaps V126I/T295K/D296E/M297V/R299D/G302K): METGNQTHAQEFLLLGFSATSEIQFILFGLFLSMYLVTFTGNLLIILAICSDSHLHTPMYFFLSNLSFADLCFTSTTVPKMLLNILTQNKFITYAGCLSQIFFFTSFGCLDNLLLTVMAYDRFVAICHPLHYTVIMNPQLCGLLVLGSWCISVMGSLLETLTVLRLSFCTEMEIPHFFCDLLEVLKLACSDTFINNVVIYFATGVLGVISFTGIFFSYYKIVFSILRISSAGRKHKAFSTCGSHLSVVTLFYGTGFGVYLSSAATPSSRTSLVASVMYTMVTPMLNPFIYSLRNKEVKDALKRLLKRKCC
Source text: To test for possible variants of the sequence […]CC (SEQ ID NO: 86) leading to similar improved functional expression, different point mutations were introduced into the first 16 amino acids of this sequence (corresponding to […], SEQ ID NO: 10) and the variants were fused after the TM7 with OR7C1. […] The test concentrations were selected to fall into the range of partial activity of the wild-type sequence.

OR7A17 and OR7C1 = assay: Cells expressing one or both of OR7A17 and OR7C1 (C-terminal domain SEQ ID NO: 221), luciferase; format: cell-based, human
Source text: In order to screen for a specific odor description, some or all members of a given set of OR which was identified to be specific for a given odor description as shown in example 25 can be combined in a screening for new odorants or new odorant mixtures. The screening on the different OR can be performed sequentially or in parallel assays with the individual OR of the OR set. Additionally, some or all of the OR of the OR set specific for the odor-description can also be co-expressed in a single cell line. Thus, to screen for woody-ambery molecules, cells were either separately or simultaneously transfected with two plasmids coding for the optimized OR7A17 and OR7C1 both with the C-terminal domain of SEQ ID NO: 221. […] Cells expressing both receptors become functional sensors for the Ambery-woody odor description and detect both ligands down to low concentrations.

OR7C1 [6] = target: T1, OR7C1; assay: CRE-luciferase assay, HEK293T cells expressing OR7C1 (wild-type / modified C-terminus); format: cell-based; remark: listed apart in the source
[7] = target: human class II OR identified in the library screening (Homo sapiens, UniProt A6NM03, Y28C)
Sequence of human class II OR identified in the library screening (Homo sapiens, UniProt A6NM03, Y28C) (A6NM03 whole entry Y28C, the tested form may be a part): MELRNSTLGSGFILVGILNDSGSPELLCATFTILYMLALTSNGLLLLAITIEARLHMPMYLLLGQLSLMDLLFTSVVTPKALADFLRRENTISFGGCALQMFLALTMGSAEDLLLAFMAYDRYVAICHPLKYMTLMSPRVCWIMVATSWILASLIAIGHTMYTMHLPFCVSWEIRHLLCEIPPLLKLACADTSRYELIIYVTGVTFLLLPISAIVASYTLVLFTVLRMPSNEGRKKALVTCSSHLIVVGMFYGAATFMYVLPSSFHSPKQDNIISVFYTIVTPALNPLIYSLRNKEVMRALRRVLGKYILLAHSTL
Description: as §1, §2

[8] = target: human class II OR identified in the library screening (Homo sapiens, UniProt A6NM03); assay: Confirmatory dose-response analysis of library-hit OR with cognate ligand, wild-type vs C-terminal domain SEQ ID NO: 221 (Table 17); settings: read-out: Potency, EC50 changed C-term; OR2AG2 (Y28C), modified C-terminus SEQ ID NO: 221 (SEQ ID NO: 379);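 further: Wild-type receptor sequences expressed from the pcDNA3.1(+) vector and compared with the C-terminally modified receptors in dose-response tests using each receptor's cognate ligand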
Sequence of human class II OR identified in the library screening (Homo sapiens, UniProt A6NM03) (A6NM03 1-292): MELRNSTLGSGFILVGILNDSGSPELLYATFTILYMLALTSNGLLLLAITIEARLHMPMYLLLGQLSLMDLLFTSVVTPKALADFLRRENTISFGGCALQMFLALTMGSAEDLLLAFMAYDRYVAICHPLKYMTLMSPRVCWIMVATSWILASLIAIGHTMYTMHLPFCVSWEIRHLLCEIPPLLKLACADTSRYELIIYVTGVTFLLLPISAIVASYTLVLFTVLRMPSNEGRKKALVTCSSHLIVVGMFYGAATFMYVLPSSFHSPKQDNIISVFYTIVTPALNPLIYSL
Description: as §1, §2

[9] = target: human class II OR identified in the library screening (Homo sapiens, UniProt O60403)
Sequence of human class II OR identified in the library screening (Homo sapiens, UniProt O60403) (O60403 whole entry): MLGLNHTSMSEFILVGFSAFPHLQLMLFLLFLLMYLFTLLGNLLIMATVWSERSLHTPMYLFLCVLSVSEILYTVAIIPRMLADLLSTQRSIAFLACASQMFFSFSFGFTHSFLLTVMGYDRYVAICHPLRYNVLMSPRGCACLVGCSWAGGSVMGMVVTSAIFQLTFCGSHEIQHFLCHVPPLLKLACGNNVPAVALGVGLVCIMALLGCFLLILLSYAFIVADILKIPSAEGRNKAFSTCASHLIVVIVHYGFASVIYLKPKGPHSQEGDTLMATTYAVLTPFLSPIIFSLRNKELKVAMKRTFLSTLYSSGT
Description: as §1, §2

OR2T4 [10] = target: T2, OR2T4 (Homo sapiens, UniProt Q8NH00, D328E/G331D/M330K)
T2 sequence (Q8NH00 with tags, fused parts or gaps D328E/M330K/G331D): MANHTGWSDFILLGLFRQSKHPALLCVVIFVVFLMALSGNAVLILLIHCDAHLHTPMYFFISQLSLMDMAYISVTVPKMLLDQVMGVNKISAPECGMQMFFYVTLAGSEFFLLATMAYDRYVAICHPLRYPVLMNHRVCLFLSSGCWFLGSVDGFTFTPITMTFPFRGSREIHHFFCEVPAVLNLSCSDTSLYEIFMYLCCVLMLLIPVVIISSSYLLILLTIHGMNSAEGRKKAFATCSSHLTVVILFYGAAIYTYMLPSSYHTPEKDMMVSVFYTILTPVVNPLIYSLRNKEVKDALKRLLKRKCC

OR2T4 [11] = target: T2, OR2T4; assay: cell-based
[12] = target: T3, human class II OR identified in the library screening (Homo sapiens, UniProt Q8NGP4)
T3 sequence (Q8NGP4 whole entry, the tested form may be a part): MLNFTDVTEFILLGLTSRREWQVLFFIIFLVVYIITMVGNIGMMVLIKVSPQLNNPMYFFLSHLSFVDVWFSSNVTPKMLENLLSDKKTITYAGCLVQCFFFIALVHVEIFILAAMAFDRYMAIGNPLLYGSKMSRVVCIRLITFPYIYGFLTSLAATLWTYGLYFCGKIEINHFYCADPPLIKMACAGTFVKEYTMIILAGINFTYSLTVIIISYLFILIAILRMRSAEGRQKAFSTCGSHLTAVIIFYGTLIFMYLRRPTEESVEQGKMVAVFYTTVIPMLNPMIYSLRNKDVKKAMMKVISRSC
Description: as §1, §2

[13] = target: human class II OR identified in the library screening (Homo sapiens, UniProt Q8NGP4); assay: Confirmatory dose-response analysis of library-hit OR with cognate ligand, wild-type vs C-terminal domain SEQ ID NO: 221 (Table 17); settings: read-out: Potency, EC50 changed C-term; OR5M3, modified C-terminus SEQ ID NO: 221 (SEQ ID NO: 559);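 further: Wild-type receptor sequences expressed from the pcDNA3.1(+) vector and compared with the C-terminally modified receptors in dose-response tests using each receptor's cognate ligand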
Target sequence in this assay (Q8NGP4 1-290): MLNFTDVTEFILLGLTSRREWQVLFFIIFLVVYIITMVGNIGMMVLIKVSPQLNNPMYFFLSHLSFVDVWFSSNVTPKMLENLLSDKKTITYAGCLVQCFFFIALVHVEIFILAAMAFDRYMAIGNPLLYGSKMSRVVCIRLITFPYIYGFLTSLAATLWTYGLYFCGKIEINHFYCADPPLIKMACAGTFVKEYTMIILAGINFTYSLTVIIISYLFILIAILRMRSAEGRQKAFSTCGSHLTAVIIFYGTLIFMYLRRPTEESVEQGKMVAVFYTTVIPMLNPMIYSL
Description: as §1, §2

[14] = target: T3, human class II OR identified in the library screening; assay: as above
Description: as §1, §2

[15] = target: human class II OR identified in the library screening (Homo sapiens, UniProt Q8NH80)
Target sequence in this assay (Q8NH80 whole entry, the tested form may be a part): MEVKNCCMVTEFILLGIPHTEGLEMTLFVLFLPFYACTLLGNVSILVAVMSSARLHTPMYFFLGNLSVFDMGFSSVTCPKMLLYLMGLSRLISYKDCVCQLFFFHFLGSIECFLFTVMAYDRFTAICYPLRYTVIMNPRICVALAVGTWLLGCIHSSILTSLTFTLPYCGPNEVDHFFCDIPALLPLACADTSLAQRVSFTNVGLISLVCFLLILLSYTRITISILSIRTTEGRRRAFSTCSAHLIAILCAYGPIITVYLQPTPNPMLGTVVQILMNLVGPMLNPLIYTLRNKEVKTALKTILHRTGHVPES
Description: as §1, §2

[16] = target: human class II OR identified in the library screening (Homo sapiens, UniProt Q8NH80); assay: Confirmatory dose-response analysis of library-hit OR with cognate ligand, wild-type vs C-terminal domain SEQ ID NO: 221 (Table 17); settings: read-out: Potency, EC50 changed C-term; OR10D3, modified C-terminus SEQ ID NO: 221 (SEQ ID NO: 671);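 further: Wild-type receptor sequences expressed from the pcDNA3.1(+) vector and compared with the C-terminally modified receptors in dose-response tests using each receptor's cognate ligand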
Target sequence in this assay (Q8NH80 1-290): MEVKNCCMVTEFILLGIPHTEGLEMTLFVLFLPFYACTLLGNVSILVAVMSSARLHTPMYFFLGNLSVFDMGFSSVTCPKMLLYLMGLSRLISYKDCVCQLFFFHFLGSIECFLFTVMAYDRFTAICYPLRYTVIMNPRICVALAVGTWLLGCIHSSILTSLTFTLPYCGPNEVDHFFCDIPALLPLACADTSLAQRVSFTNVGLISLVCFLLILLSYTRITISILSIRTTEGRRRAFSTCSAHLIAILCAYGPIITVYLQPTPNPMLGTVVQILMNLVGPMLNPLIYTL
Description: as §1, §2

[17] = target: human class II OR identified in the library screening (Homo sapiens, UniProt A4D2G3)
Sequence of human class II OR identified in the library screening (Homo sapiens, UniProt A4D2G3) (A4D2G3 whole entry): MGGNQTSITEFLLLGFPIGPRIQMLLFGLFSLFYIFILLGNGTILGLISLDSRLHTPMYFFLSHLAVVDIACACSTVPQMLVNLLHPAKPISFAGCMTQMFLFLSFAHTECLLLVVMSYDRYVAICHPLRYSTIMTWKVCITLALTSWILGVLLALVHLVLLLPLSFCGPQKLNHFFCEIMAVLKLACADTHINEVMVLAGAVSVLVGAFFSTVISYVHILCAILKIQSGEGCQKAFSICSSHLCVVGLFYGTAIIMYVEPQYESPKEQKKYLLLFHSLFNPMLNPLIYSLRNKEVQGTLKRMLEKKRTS
Description: as §1, §2

[18] = target: human class II OR identified in the library screening (Homo sapiens, UniProt Q96R48)
Sequence of human class II OR identified in the library screening (Homo sapiens, UniProt Q96R48) (Q96R48 whole entry): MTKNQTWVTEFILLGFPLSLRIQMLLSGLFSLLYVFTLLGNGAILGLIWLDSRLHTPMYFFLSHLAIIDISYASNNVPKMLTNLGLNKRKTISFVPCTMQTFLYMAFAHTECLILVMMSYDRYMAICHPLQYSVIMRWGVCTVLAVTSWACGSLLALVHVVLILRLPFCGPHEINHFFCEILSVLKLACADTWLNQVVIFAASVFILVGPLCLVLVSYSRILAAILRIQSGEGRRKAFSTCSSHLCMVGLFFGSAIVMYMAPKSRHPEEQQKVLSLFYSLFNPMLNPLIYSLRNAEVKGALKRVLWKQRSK
Description: as §1, §2

[19] = target: human class II OR identified in the library screening (Homo sapiens, UniProt O76100)
Sequence of human class II OR identified in the library screening (Homo sapiens, UniProt O76100) (O76100 whole entry): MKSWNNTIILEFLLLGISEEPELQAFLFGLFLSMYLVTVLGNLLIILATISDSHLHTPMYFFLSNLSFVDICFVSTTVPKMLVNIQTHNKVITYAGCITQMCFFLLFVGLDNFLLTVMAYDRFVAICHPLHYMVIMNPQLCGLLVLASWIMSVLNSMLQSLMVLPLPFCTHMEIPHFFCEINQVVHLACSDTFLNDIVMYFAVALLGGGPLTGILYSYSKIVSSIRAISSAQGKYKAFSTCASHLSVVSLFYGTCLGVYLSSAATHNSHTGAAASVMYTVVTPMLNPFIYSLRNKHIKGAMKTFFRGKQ
Description: as §1, §2

[20] = target: human class II OR identified in the library screening (Homo sapiens, UniProt Q15622)
Sequence of human class II OR identified in the library screening (Homo sapiens, UniProt Q15622) (Q15622 whole entry, the tested form may be a part): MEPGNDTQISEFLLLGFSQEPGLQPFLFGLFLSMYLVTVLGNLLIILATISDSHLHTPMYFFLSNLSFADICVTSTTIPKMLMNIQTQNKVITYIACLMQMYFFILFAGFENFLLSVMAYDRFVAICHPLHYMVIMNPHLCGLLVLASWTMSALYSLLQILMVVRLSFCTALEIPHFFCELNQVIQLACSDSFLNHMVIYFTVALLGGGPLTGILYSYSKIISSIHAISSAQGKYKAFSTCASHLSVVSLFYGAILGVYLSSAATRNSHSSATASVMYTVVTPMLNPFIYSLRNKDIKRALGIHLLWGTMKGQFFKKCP
Description: as §1, §2

[21] = target: human class II OR identified in the library screening (Homo sapiens, UniProt Q8WZ84); assay: Confirmatory dose-response analysis of library-hit OR with cognate ligand, wild-type vs C-terminal domain SEQ ID NO: 221 (Table 17); settings: OR8D1, wild-type sequence
Sequence of human class II OR identified in the library screening (Homo sapiens, UniProt Q8WZ84) (Q8WZ84 whole entry, the tested form may be a part): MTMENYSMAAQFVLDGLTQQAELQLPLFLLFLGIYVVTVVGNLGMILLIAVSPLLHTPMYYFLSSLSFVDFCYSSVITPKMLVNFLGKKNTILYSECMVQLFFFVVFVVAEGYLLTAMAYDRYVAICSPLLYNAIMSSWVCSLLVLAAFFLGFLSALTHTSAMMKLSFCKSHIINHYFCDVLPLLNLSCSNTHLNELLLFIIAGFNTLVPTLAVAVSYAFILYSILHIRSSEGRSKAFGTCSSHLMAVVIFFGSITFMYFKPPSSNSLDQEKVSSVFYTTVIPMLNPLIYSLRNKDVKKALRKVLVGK
Description: as §1, §2

[22] = target: human class II OR identified in the library screening (Homo sapiens, UniProt Q8NGC4); assay: as above; settings: read-out: Potency, EC50 changed C-term; OR10G3 (S73G), modified C-terminus SEQ ID NO: 221 (SEQ ID NO: 673)
Sequence of human class II OR identified in the library screening (Homo sapiens, UniProt Q8NGC4) (Q8NGC4 1-291): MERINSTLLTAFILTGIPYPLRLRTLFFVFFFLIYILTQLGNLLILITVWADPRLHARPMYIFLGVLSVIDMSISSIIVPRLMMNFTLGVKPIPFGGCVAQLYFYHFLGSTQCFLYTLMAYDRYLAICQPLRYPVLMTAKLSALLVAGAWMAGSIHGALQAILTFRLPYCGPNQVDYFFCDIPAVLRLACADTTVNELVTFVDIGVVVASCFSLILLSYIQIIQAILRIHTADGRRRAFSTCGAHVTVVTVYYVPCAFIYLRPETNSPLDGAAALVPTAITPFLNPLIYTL
Description: as §1, §2

[23] = OR5M3, modified C-terminus SEQ ID NO: 221 vs wild-type
[24] = OR8D1, modified C-terminus SEQ ID NO: 221 (SEQ ID NO: 631)
[25] = OR8D1, modified C-terminus SEQ ID NO: 221 vs wild-type

CC/C(C)=C/CC[C@H](C)CCO [(E,S)-3,7-dimethylnon-6-en-1-ol]
Detection threshold; concentration for 2-fold induction, wild-type [1]: no
Detection threshold; concentration for 2-fold induction, changed C-term. [2]: 3.0 µM
pEC50 [3]: 4.46
Fold improvement efficacy ([4]; OR1D2, modified C-terminus SEQ ID NO: 221 vs wild-type): 14.9 fold

CC(CO)C1=C2C(C)(C)C3CCC2(C3)C(C)(C)CC1 (stereo not shown) [Ambermax]
Comments on efficacy (OR7C1 [5]): 3.5-fold lower
ligand specificity in cells expressing OR7A17 and/or OR7C1 (OR7A17 and OR7C1): specific ligand for OR7C1
Detection threshold; concentration for 2-fold induction (OR7C1 [6]; changed C-term. SEQ ID NO: 86): 0.17 µM
Fold-improvement potency (OR7C1 [6]; changed C-term. vs wild-type): 2.7
Detection threshold; concentration for 2-fold induction (OR7C1 [6]; wild-type): 2.76 µM

O=C(OCc1ccccc1)c1ccccc1O [Benzyl salicylate]
Detection threshold; concentration for 2-fold induction, wild-type [7]: no
Detection threshold; concentration for 2-fold induction, changed C-term. [2]: 1.3 µM
pEC50 [8]: 5.35
Fold improvement efficacy ([4]; OR2AG2 (Y28C), modified C-terminus SEQ ID NO: 221 vs wild-type): 10.2 fold

CC(C)c1ccc2c(c1)OCC(=O)CO2 [Cascalone]
Detection threshold; concentration for 2-fold induction, wild-type [9]: no
Detection threshold; concentration for 2-fold induction, changed C-term. [2]: 108.6 µM
Fold improvement efficacy ([4]; OR10H2, modified C-terminus SEQ ID NO: 221 vs wild-type): 7.0 fold
pEC50 ([4]; OR10H2, modified C-terminus SEQ ID NO: 221 (SEQ ID NO: 680)): 3.65

SC1CCCC1 [Cyclopentanethiol, reference compound]
Comments on efficacy (OR2T4 [10]): No induction
ligand identification in sulfur odorant screen (OR2T4 [10]; OR2T4 with optimized C-terminus SEQ ID NO: 86): good ligands
Fold-improvement potency (OR2T4 [10]; changed C-term. vs wild-type): >>22
Fold-improvement threshold (OR2T4 [10]; changed C-term. vs wild-type): >>100
pEC50 (OR2T4 [11]): < 3.50

CC1=C(O)C(=O)C(C)O1 (stereo not shown) [Furaneol]
Detection threshold; concentration for 2-fold induction, wild-type [12]: 30.5 µM
Detection threshold; concentration for 2-fold induction, changed C-term. [2]: 0.3 µM
pEC50 [13]: 5.06
pEC50 [14]: 4.19
Potency, Fold-improvement ([4]; OR5M3, EC50 modified C-terminus SEQ ID NO: 221 vs wild-type): 7.5 fold
Fold improvement efficacy [4, 23]: 16.8 fold
Detection threshold; Fold improvement efficacy [4, 23]: 100.7 fold

CC=Cc1ccc(O)c(OC)c1 [Isoeugenol]
Detection threshold; concentration for 2-fold induction, wild-type [15]: no
Detection threshold; concentration for 2-fold induction, changed C-term. [2]: 1.4 µM
pEC50 [16]: 5.08
Fold improvement efficacy ([4]; OR10D3, modified C-terminus SEQ ID NO: 221 vs wild-type): 6.1 fold

CC(C)=CCC(C)C1CC1(C)CO (stereo not shown) [Rosyfolia]
Detection threshold; concentration for 2-fold induction, wild-type [17]: no
Detection threshold; concentration for 2-fold induction, wild-type [18]: no
Fold improvement efficacy ([4]; OR2A5, modified C-terminus SEQ ID NO: 221 vs wild-type): 3.0 fold
Fold improvement efficacy ([4]; OR2A25, modified C-terminus SEQ ID NO: 221 vs wild-type): 7.6 fold
pEC50 ([4]; OR2A5, modified C-terminus SEQ ID NO: 221 (SEQ ID NO: 374)): 4.74
pEC50 ([4]; OR2A25, modified C-terminus SEQ ID NO: 221 (SEQ ID NO: 370)): 4.96

C=C(C)[C@@H]1CC[C@H](C)C2=C(C1)[C@@H](C)CC2=O [Rotundone]
Detection threshold; concentration for 2-fold induction, wild-type [19]: no
Detection threshold; concentration for 2-fold induction, wild-type [20]: no
Fold improvement efficacy ([4]; OR7A5, modified C-terminus SEQ ID NO: 221 vs wild-type): 24. fold
Fold improvement efficacy ([4]; OR7A10, modified C-terminus SEQ ID NO: 221 vs wild-type): 5.9 fold
pEC50 ([4]; OR7A5, modified C-terminus SEQ ID NO: 221 (SEQ ID NO: 612)): 5.25
pEC50 ([4]; OR7A10, modified C-terminus SEQ ID NO: 221 (SEQ ID NO: 610)): 6.80

CC1=C(O)C(=O)OC1C (stereo not shown) [Sotolone]
Detection threshold; concentration for 2-fold induction, wild-type [21]: 2.5 µM
Potency, Fold-improvement ([4]; OR8D1, EC50 modified C-terminus SEQ ID NO: 221 vs wild-type): 2.5 fold
Detection threshold; concentration for 2-fold induction, changed C-term. [4, 24]: 0.48 µM
Fold improvement efficacy [4, 25]: 2.1 fold
Detection threshold; Fold improvement efficacy [4, 25]: 5.2 fold
pEC50 [4, 24]: 5.12

COc1cc(C=O)ccc1O [Vanillin]
pEC50 [22]: 4.82
